{"source": "ChEMBL document CHEMBL1240532", "about": "“Spiroindolones, a potent compound class for the treatment of malaria” (Science, 2010)", "key": {"[1]": {"target": "3',5'-cyclic-AMP phosphodiesterase 4D (Homo sapiens, UniProt Q08499)", "experiment": "Binding affinity to human recombinant PDE4D"}, "[2]": {"target": "Corticotropin-releasing factor receptor 1 (Homo sapiens, UniProt P34998)", "experiment": "Binding affinity to human recombinant CRF1 receptor"}, "[3]": {"experiment": "Cmax in CD1 mouse at 24.6 mg/kg, po", "format": "ADME, organism-based", "design": "dose 24.6 mg/kg, route oral", "details": "in vivo"}, "[4]": {"target": "5-hydroxytryptamine receptor 2A (Homo sapiens, UniProt P28223)", "sequence (P28223 whole entry)": "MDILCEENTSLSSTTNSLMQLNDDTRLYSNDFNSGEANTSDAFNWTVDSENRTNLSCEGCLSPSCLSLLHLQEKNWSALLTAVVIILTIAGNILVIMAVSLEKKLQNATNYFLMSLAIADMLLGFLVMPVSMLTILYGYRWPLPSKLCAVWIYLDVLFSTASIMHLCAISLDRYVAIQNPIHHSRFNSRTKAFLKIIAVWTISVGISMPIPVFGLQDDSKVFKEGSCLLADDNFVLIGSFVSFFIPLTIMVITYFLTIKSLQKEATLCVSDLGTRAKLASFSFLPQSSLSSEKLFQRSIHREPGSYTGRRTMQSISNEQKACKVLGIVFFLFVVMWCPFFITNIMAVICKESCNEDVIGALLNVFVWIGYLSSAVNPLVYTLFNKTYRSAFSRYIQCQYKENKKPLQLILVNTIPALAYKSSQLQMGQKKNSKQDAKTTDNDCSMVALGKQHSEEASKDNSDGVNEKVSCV", "experiment": "Binding affinity to human recombinant serotonin 5-HT2A receptor"}, "[5]": {"target": "Neuropeptide Y receptor type 2 (Homo sapiens, UniProt P49146)", "experiment": "Binding affinity to human recombinant neuropeptide Y2 receptor"}, "[6]": {"target": "Voltage-gated inwardly rectifying potassium channel KCNH2 (Homo sapiens, UniProt Q12809)", "sequence (Q12809 whole entry)": "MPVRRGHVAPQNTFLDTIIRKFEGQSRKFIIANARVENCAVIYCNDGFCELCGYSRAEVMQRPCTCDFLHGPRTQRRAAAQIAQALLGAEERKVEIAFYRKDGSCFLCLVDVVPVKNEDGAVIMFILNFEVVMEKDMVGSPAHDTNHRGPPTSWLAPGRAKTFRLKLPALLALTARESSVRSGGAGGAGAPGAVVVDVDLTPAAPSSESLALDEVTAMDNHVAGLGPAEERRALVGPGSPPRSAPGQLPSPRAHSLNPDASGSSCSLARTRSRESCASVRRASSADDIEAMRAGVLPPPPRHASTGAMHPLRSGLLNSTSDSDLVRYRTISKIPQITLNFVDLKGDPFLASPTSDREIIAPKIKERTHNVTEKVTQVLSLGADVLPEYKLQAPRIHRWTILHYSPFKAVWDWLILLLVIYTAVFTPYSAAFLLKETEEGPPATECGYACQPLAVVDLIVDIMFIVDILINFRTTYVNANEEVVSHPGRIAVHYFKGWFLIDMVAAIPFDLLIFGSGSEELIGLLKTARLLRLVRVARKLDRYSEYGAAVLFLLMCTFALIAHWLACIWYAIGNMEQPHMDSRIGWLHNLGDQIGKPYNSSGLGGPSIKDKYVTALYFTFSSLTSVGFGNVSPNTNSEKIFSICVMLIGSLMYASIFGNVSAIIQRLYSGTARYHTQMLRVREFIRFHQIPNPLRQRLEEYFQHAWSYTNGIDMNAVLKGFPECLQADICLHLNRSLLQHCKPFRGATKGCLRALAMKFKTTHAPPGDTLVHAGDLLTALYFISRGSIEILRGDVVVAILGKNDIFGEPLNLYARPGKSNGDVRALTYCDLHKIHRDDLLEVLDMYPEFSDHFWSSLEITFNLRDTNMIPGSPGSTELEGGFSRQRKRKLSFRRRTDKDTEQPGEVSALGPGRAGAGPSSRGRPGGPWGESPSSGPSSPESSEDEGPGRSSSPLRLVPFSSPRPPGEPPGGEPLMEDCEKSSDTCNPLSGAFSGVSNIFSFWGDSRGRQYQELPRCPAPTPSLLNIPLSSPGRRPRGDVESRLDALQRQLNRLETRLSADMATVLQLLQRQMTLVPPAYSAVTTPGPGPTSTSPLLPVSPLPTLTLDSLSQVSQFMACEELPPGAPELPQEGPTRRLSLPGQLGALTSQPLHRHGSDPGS", "experiment": "Inhibition of human ERG"}, "[7]": {"experiment": "Mutagenic activity in Salmonella Typhimurium by Ames test", "format": "toxicity", "details": "salmonella enterica subsp. enterica serovar typhimurium"}, "[8]": {"target": "Cannabinoid receptor 1 (Homo sapiens, UniProt P21554)", "sequence (P21554 whole entry)": "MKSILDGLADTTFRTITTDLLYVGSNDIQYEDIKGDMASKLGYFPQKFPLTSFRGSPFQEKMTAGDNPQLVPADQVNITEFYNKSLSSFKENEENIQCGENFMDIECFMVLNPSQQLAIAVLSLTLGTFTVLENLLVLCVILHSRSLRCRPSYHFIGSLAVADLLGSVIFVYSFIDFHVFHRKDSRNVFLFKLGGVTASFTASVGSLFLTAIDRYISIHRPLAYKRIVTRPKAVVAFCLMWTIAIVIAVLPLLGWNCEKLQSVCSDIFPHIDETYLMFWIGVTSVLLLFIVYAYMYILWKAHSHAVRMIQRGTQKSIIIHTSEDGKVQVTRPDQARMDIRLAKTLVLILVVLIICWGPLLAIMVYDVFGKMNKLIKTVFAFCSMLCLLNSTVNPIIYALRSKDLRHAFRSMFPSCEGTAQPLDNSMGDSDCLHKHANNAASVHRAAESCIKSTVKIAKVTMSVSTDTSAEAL", "experiment": "Binding affinity to human recombinant cannabinoid 1 receptor"}, "[9]": {"system": "Plasmodium falciparum", "experiment": "Antimalarial activity against Plasmodium falciparum Dd2 after 72 hrs by SYBR green based fluorescence assay", "format": "functional, organism-based", "details": "Dd2, 72 h"}, "[10]": {"system": "Plasmodium falciparum", "experiment": "microbe, parasite or virus in culture", "details": "Dd2, 72 h", "description": "Antimalarial activity against Plasmodium falciparum Dd2 containing attB site inserted in parasite genome and using CAM promoter driven expressing ATP4 I398F/P990R mutant after 72 hrs by SYBR green based fluorescence assay"}, "[11]": {"target": "Motilin receptor (Homo sapiens, UniProt O43193)", "experiment": "Binding affinity to human recombinant motilin receptor"}, "[12]": {"target": "Glutamate [NMDA] receptor", "experiment": "Binding affinity to human recombinant NMDA receptor"}, "[13]": {"system": "Plasmodium falciparum", "experiment": "Antimalarial activity against Plasmodium falciparum NF54 after 48 hrs incubation by [3H]hypoxanthin incorporation assay"}, "[14]": {"target": "Corticotropin-releasing factor receptor 2 (Homo sapiens, UniProt Q13324)", "experiment": "Binding affinity to human recombinant CRF2alpha receptor"}, "[15]": {"system": "Plasmodium falciparum", "experiment": "Inhibition of protein synthesis in NITD609-resistant Plasmodium falciparum Dd2 Clone1 within 1 hrs by [35S]Met/Cys incorporation assay", "format": "functional"}, "[16]": {"experiment": "Tmax in CD1 mouse at 24.6 mg/kg, po", "format": "ADME, organism-based", "design": "dose 24.6 mg/kg, route oral", "details": "in vivo"}, "[17]": {"experiment": "AUC (0 to infinity) in CD1 mouse at 24.6 mg/kg, po", "format": "ADME, organism-based", "design": "time infinity, dose 24.6 mg/kg, route oral", "details": "plasma"}, "[18]": {"experiment": "Tmax in Wistar rat at 23.7 mg/kg, po", "format": "ADME, organism-based", "design": "dose 23.7 mg/kg, route oral", "details": "in vivo"}, "[19]": {"target": "Beta-3 adrenergic receptor (Homo sapiens, UniProt P13945)", "experiment": "Binding affinity to human recombinant adrenergic beta3 receptor"}, "[20]": {"system": "Plasmodium falciparum", "experiment": "Antimalarial activity against Plasmodium falciparum 3D7 assessed as parasite growth inhibition at 1.6 nM after24 hrs by [3H]hypoxanthin incorporation assay", "format": "functional"}, "[21]": {"system": "Plasmodium berghei", "experiment": "Antimalarial activity against Plasmodium berghei GFP ANKA infected in NMRI mice (Mus musculus) assessed as survival at 10 mg/kg, perorally administered through 0.5% MCM/0.1%solutol HS15 formulation 24 hrs post infection for 3 days measured 96 hrs post infection", "format": "functional", "details": "route oral"}, "[22]": {"target": "Estrogen receptor (Homo sapiens, UniProt P03372)", "experiment": "Binding affinity to human recombinant ERalpha"}, "[23]": {"target": "Gastrin/cholecystokinin type B receptor (Homo sapiens, UniProt P32239)", "experiment": "Binding affinity to human recombinant cholecystokinin B receptor"}, "[24]": {"target": "Adenosine receptor A2a (Homo sapiens, UniProt P29274)", "experiment": "Binding affinity to human recombinant adenosine 2a receptor"}, "[25]": {"target": "hERG (KCNH2) (Homo sapiens, UniProt Q12809)", "sequence (Q12809 whole entry)": "as the sequence (Q12809 whole entry) above", "experiment": "Inhibition of human ERG at 30 uM by patch clamp method"}, "[26]": {"target": "Alpha-2B adrenergic receptor (Homo sapiens, UniProt P18089)", "sequence (P18089 whole entry)": "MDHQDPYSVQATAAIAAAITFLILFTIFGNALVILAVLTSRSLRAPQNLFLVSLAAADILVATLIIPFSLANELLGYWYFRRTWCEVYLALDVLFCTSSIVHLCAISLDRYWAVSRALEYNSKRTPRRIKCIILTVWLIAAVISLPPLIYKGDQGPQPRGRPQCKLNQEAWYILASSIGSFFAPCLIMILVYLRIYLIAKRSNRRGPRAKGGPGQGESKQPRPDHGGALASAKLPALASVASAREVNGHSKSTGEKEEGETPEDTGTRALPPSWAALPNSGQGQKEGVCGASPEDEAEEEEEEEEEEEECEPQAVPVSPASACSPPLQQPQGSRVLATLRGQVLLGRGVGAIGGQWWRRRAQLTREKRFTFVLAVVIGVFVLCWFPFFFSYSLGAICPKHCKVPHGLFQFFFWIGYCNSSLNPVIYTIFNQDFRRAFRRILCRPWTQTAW", "experiment": "Binding affinity to human recombinant alpha2b receptor"}, "[27]": {"system": "Plasmodium berghei", "experiment": "Antimalarial activity against Plasmodium berghei GFP ANKA infected in NMRI mice (Mus musculus) assessed as survival at 100 mg/kg, perorally administered as single dose 24 hrs post infection for 1 day measured 72 hrs post infection", "format": "functional", "details": "route oral"}, "[28]": {"target": "5-hydroxytryptamine receptor 1A (Homo sapiens, UniProt P08908)", "sequence (P08908 whole entry)": "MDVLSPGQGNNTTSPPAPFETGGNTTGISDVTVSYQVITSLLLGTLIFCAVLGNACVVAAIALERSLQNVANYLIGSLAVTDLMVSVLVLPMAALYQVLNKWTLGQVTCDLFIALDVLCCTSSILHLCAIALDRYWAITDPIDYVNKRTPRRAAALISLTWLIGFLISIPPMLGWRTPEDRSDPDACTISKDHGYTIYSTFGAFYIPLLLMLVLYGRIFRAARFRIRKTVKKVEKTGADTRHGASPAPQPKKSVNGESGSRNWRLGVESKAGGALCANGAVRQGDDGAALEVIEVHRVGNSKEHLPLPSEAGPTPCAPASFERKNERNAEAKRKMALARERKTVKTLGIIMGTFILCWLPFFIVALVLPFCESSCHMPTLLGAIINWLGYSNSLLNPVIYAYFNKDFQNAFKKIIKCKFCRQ", "experiment": "Binding affinity to human recombinant serotonin 5-HT1A receptor"}, "[29]": {"system": "Plasmodium berghei", "experiment": "Antimalarial activity against Plasmodium berghei GFP ANKA infected in NMRI mice (Mus musculus) assessed as cure rate at 30 mg/kg, perorally administered through 0.5% MCM/0.1%solutol HS15 formulation 24 hrs post infection for 3 days measured on day 30 post infection", "format": "functional", "details": "route oral"}, "[30]": {"target": "Neuropeptide Y receptor type 1 (Homo sapiens, UniProt P25929)", "experiment": "Binding affinity to human recombinant neuropeptide Y1 receptor"}, "[31]": {"target": "Endothelin receptor type B (Homo sapiens, UniProt P24530)", "sequence (P24530 whole entry)": "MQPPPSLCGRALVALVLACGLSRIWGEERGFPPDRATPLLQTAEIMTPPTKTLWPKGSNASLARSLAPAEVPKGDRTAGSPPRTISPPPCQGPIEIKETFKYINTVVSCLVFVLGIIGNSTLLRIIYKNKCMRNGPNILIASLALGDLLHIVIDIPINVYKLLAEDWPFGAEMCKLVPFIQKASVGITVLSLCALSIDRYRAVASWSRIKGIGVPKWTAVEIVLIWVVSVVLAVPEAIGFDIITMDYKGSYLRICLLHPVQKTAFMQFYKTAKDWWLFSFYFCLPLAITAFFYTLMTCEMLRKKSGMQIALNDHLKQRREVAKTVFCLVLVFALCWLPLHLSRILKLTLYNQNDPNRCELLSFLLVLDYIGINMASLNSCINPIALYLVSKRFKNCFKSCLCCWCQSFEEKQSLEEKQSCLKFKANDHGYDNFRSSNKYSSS", "experiment": "Binding affinity to human recombinant endothelin B receptor"}, "[32]": {"system": "Plasmodium berghei", "experiment": "Antimalarial activity against Plasmodium berghei GFP ANKA infected in NMRI mice (Mus musculus) assessed as cure rate at 100 mg/kg, perorally administered as single dose 24 hrs post infection for 1 day measured 30 days post infection", "format": "functional", "details": "route oral"}, "[33]": {"experiment": "Oral bioavailability in CD1 mouse at 24.6 mg/kg", "format": "ADME, organism-based", "details": "in vivo"}, "[34]": {"target": "Vasopressin V1a receptor (Homo sapiens, UniProt P37288)", "experiment": "Binding affinity to human recombinant vasopressin V1a receptor"}, "[35]": {"experiment": "Cmax in Wistar rat at 23.7 mg/kg, po", "format": "ADME, organism-based", "design": "dose 23.7 mg/kg, route oral", "details": "in vivo"}, "[36]": {"target": "Alpha-1A adrenergic receptor (Homo sapiens, UniProt P35348)", "experiment": "Binding affinity to human recombinant alpha 1a receptor"}, "[37]": {"experiment": "Clearance in CD1 mouse at 5.4 mg/kg, iv", "format": "ADME, organism-based", "design": "dose 5.4 mg/kg, route intravenous", "details": "in vivo"}, "[38]": {"experiment": "Solubility in pH 6.8 nuffer", "format": "physicochemical", "details": "buffer"}, "[39]": {"target": "GABA-A receptor; agonist GABA site", "experiment": "Binding affinity to human recombinant GABAA receptor", "format": "protein-complex assay"}, "[40]": {"target": "B2 bradykinin receptor (Homo sapiens, UniProt P30411)", "sequence (P30411 whole entry)": "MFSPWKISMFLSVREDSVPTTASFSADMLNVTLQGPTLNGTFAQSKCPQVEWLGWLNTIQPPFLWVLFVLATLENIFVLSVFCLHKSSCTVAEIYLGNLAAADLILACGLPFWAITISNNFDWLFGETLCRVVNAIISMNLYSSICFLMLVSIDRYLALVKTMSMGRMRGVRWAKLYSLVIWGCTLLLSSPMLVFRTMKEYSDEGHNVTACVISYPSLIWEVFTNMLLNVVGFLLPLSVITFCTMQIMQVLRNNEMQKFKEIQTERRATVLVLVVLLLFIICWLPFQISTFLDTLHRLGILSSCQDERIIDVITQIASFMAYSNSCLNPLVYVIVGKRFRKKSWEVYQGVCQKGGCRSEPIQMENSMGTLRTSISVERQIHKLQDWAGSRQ", "experiment": "Binding affinity to human recombinant bradykinin B2 receptor"}}, "data": [{"compound": "C[C@H]1Cc2c([nH]c3cc(Cl)c(F)cc23)[C@@]2(N1)C(=O)Nc1ccc(Cl)cc12", "note": "[CIPARGAMIN]", "values": [{"measurement": "IC50", "setting": "[1]", "result": "> 10", "unit": "µM"}, {"measurement": "IC50", "setting": "[2]", "result": "> 30", "unit": "µM"}, {"measurement": "Cmax", "setting": "[3]", "result": 9.17, "unit": "µM"}, {"measurement": "IC50", "setting": "[4]", "result": "> 10", "unit": "µM"}, {"measurement": "IC50", "setting": "[5]", "result": "> 10", "unit": "µM"}, {"measurement": "IC50", "setting": "[6]", "result": 30.4, "unit": "µM"}, {"measurement": "Activity", "setting": "[7]", "result": "Non-toxic"}, {"measurement": "IC50", "setting": "[8]", "result": "> 10", "unit": "µM"}, {"measurement": "IC50", "setting": "[9]", "result": 0.00044, "unit": "µM"}, {"measurement": "IC50", "setting": "[10]", "result": 0.00425, "unit": "µM"}, {"measurement": "IC50", "setting": "[11]", "result": "> 10", "unit": "µM"}, {"measurement": "IC50", "setting": "[12]", "result": "> 10", "unit": "µM"}, {"measurement": "IC50", "setting": "[13]", "result": 0.0005, "unit": "µM"}, {"measurement": "IC50", "setting": "[14]", "result": "> 30", "unit": "µM"}, {"measurement": "inhibition (INH)", "setting": "[15]", "result": 50, "unit": "%"}, {"measurement": "Tmax", "setting": "[16]", "result": 1, "unit": "h"}, {"measurement": "AUC(0-inf)", "setting": "[17]", "result": 139, "unit": "µM·h"}, {"measurement": "Tmax", "setting": "[18]", "result": 8, "unit": "h"}, {"measurement": "IC50", "setting": "[19]", "result": "> 30", "unit": "µM"}, {"measurement": "inhibition at 0.0016 µM", "setting": "[20]", "result": "> 90", "unit": "%"}, {"measurement": "Survival", "setting": "[21]", "result": 24.4, "unit": "days"}, {"measurement": "IC50", "setting": "[22]", "result": "> 30", "unit": "µM"}, {"measurement": "IC50", "setting": "[23]", "result": "> 30", "unit": "µM"}, {"measurement": "IC50", "setting": "[24]", "result": "> 30", "unit": "µM"}, {"measurement": "inhibition at 30 µM", "setting": "[25]", "result": 44.9, "unit": "%"}, {"measurement": "IC50", "setting": "[26]", "result": "> 10", "unit": "µM"}, {"measurement": "Survival", "setting": "[27]", "result": ">30", "unit": "days"}, {"measurement": "IC50", "setting": "[28]", "result": "> 10", "unit": "µM"}, {"measurement": "Activity", "setting": "[29]", "result": 90, "unit": "%"}, {"measurement": "IC50", "setting": "[30]", "result": "> 10", "unit": "µM"}, {"measurement": "IC50", "setting": "[31]", "result": "> 30", "unit": "µM"}, {"measurement": "Activity", "setting": "[32]", "result": 100, "unit": "%"}, {"measurement": "bioavailability", "setting": "[33]", "result": 100, "unit": "%"}, {"measurement": "IC50", "setting": "[34]", "result": "> 10", "unit": "µM"}, {"measurement": "Cmax", "setting": "[35]", "result": 11.7, "unit": "µM"}, {"measurement": "IC50", "setting": "[36]", "result": "> 10", "unit": "µM"}, {"measurement": "clearance", "setting": "[37]", "result": 9.75, "unit": "mL/min/kg"}, {"measurement": "solubility", "setting": "[38]", "result": 39, "unit": "µg/mL"}, {"measurement": "IC50", "setting": "[39]", "result": "> 10", "unit": "µM"}, {"measurement": "IC50", "setting": "[40]", "result": "> 30", "unit": "µM"}]}]}
